Test results reported in US7476691B2, “Sulfamate benzothiophene derivatives as steroid sulfatase inhibitors” (Laboratoire Theramex, priority 2003, dated 2009).
Where “and” joins values, the source holds several entries; their conditions need not be identical. Identical values can stand only once.

Key:
estrone sulfatase [1] = target: T1, estrone sulfatase (Homo sapiens, UniProt P08842); test: Estrone sulfatase whole-cell assay on MCF-7 cells; type: cell-based; design: Whole-cell assays were performed as originally described by Duncan et al. (Cancer Res., 1993, 53: 298-303) on intact MCF-7 cell monolayers; endogenous in cells; host or cells: MCF-7 (human breast adenocarcinoma), intact monolayers; settings: 20 h treatment, 3H-E1S, read-out: IC50 (nM) ± S.E.M., inhibition of estrone sulfatase
T1 sequence (P08842 22-583): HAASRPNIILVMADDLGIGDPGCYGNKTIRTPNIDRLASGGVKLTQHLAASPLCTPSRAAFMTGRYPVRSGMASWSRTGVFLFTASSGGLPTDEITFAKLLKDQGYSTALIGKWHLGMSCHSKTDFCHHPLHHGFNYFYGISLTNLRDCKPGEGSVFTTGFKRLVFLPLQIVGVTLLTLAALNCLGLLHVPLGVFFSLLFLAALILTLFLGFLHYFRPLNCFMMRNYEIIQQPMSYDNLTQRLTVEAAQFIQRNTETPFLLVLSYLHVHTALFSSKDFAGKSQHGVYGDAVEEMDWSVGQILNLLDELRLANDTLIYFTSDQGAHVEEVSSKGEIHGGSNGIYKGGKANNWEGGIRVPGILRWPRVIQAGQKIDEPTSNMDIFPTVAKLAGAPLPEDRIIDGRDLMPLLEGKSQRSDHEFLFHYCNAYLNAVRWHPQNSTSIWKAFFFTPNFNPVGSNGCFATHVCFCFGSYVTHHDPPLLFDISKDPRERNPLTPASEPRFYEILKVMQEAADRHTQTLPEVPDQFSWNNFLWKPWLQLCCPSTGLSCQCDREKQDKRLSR
Protocol: (§1) Two in vitro models on whole cells were used. […] Moreover, these cells were used in the in vivo model of hormono-dependent induced xenografts.
(§2) Estrone Sulfatase Assay on Cells
(§3) Whole-cell assays were performed as originally described by Duncan et al. (Cancer Res., 1993, 53: 298-303) on intact MCF-7 cell monolayers. Assays were carried out with cells in logarithmic growth phase, on 96-well (JEG-3) or 24-well (MCF-7) microplates. Twenty-four hours (JEG-3) or 72 h (MCF-7) before studies, cells were seeded in decomplemented fetal calf serum (dFCS) supplemented medium. Then, the seeding medium was removed and the cells were rinsed with PBS to eliminate any trace of dFCS. Then, ^3H-E1S was added, followed by test compounds ranging from 10^−12 M to 10^−5 M. After 4 h (JEG-3) or 20 h (MCF-7) of treatment, the medium was transferred into either 96-deep-well microplates (JEG-3) or plastic tubes (MCF-7) and centrifuged at 200×g for 10 min to pellet cells before toluene extraction. A fraction of medium was used for toluene extraction in order to separate conjugated substrate and non-conjugated products. The radioactivity in the toluene phase was measured by liquid scintillation counting (LSC). Finally, estrone sulfatase activity was expressed in pmoles of ^3H-E1+^3H-E2 formed per 4 or 20 hours and per μg DNA and estrone sulfatase inhibition in percentage of control activity without inhibitor.

estrone sulfatase [2] = target: T1, estrone sulfatase; test: Estrone sulfatase whole-cell assay on JEG-3 cells; type: cell-based; design: The JEG-3 cell line, derived from a human placental choriocarcinoma, is spontaneously very rich in human estrone sulfatase; endogenous in cells; host or cells: JEG-3 (human placental choriocarcinoma), intact cells; settings: 4 h treatment, 3H-E1S, read-out: IC50 (nM) ± S.E.M., inhibition of estrone sulfatase
Protocol: as §1, §2, §3

[3] = tested on: ovariectomized Wistar female rats; test: Antiuterotrophic/antisulfatase activity: inhibition of E1S stimulated uterus weight; type: in vivo, rat; settings: ovariectomized rats, E1S 50 μg/kg/day s.c., compound oral 1 mg/kg/day for 4 days
Protocol: A short model, derived from Purohit's method, was developed for the evaluation in vivo of nonestrogenic steroid sulfatase inhibitors.
Wistar female rats were ovariectomized and left to rest for 4 weeks. Prior to treatment, the absence of cyclicity was checked by vaginal smears.
Animals were supplemented with estrone sulfate (E1S) at 50 μg/kg/day s.c., alone or combined with oral administration of potential sulfatase inhibitors, at 1 mg/kg/day for 4 days. The uteri were removed, freed of adjacent tissue and wet weighed.
The results are expressed as % of inhibition of the E1S induced stimulation.
The activity of Ex 55 on E1S stimulated uterus weight was evaluated in relation to the standard inhibitor 6,6,7 COUMATE from 0.03 mg/kg/day to 1 mg/kg/day p.o.
In this study, a last administration was performed 24 hours before the necropsy for E1S and E2 serum levels assays. The uteri were removed, freed of adjacent tissue, wet weighed and immediately deep frozen until the determination of sulfatase activity.

prepubescent female rats = test: Residual estrogenic activity in vivo (uterotrophic assay); settings: prepubescent female rats, oral, 1 mg/rat/day for 3 days
Protocol: These compounds were checked for residual estrogenic activity in vivo in the classical uterotrophic assay after 3-day administration by oral route in prepubescent female rats.
Prepubescent female rats were orally treated at 1 mg/rat/day for 3 days. On the day following the last treatment, uteri were removed and wet weight were recorded.
The results are expressed as % of stimulation of uterus weight in comparison with controls.

| IC50 (estrone sulfatase [1]) | IC50 (estrone sulfatase [2]) | melting point | % stimulation of uterus weight in comparison with controls (prepubescent female rats) | SMILES | % inhibition of the E1S induced stimulation (uterus weight) [3] |
| --- | --- | --- | --- | --- | --- |
| – | 78.8 ± 39.8 nM | 110 °C | – | NS(=O)(=O)Oc1ccc2cc(C3CCCC3)sc2c1 [Ex 30, Sulfamic acid, 2-cyclopentyl-benzothiophene-6-yl ester] | – |
| – | 102 ± 58 nM | 132 °C | – | NS(=O)(=O)Oc1ccc2cc(C3CCCCCC3)sc2c1 [Ex 31, Sulfamic acid, 2-cycloheptyl-benzothiophene-6-yl ester] | – |
| – | 434 ± 94.8 nM | 126 °C | – | NS(=O)(=O)Oc1ccc2cc(C3CCCCCCC3)sc2c1 [Ex 32, Sulfamic acid, 2-cyclooctyl-benzothiophene-6-yl ester] | – |
| – | 744 ± 140 nM | 98 °C | – | NS(=O)(=O)Oc1ccc2cc(C3CCCCCCCCC3)sc2c1 [Ex 33, Sulfamic acid, 2-cyclodecyl-benzothiophene-6-yl ester] | – |
| – | 318 ± 42.9 nM | 132 °C | – | CC1CCC(c2cc3ccc(OS(N)(=O)=O)cc3s2)CC1 (centres unmarked) [Ex 34, Sulfamic acid, 2-(4-methylcyclohexyl)-benzothiophene-6-yl ester] | – |
| – | 147 ± 16.3 nM | 110 °C | – | CC1CCCCC1c1cc2ccc(OS(N)(=O)=O)cc2s1 (centres unmarked) [Ex 35, Sulfamic acid, 2-(2-methylcyclohexyl)-benzothiophene-6-yl ester] | – |
| – | 128 ± 14.2 nM | 72 °C | – | CC1(C)CCCC1c1cc2ccc(OS(N)(=O)=O)cc2s1 (centres unmarked) [Ex 36, Sulfamic acid, 2-(2,2-dimethylcyclopentyl)-benzothiophene-6-yl ester] | – |
| – | 92.4 ± 15.6 nM | 185 °C | – | NS(=O)(=O)Oc1ccc2cc(C3C4CC5CC(C4)CC3C5)sc2c1 (centres unmarked) [Ex 37, Sulfamic acid, 2-(2-adamantyl)-benzothiophene-6-yl ester] | – |
| – | – | 112 °C | – | CCCc1cc2ccc(OS(N)(=O)=O)cc2s1 [Ex 38, Sulfamic acid, 2-propyl-benzothiophene-6-yl ester] | – |
| – | – | 125 °C | – | CCCCCCc1cc2ccc(OS(N)(=O)=O)cc2s1 [Ex 39, Sulfamic acid, 2-hexyl-benzothiophene-6-yl ester] | – |
| – | – | 115 °C | – | NS(=O)(=O)Oc1ccc2cc(CC3CCCCC3)sc2c1 [Ex 40, Sulfamic acid, 2-cyclohexylmethyl-benzothiophene-6-yl ester] | – |
| – | – | 90 °C | – | NS(=O)(=O)Oc1ccc2cc(CC3CCCCCC3)sc2c1 [Ex 41, Sulfamic acid, 2-cycloheptylmethyl-benzothiophene-6-yl ester] | – |
| 0.16 ± 0.03 nM | 7 ± 1.2 nM | – | 0% | NS(=O)(=O)Oc1ccc2cc(C3CCCCC3)[s+]([O-])c2c1 (centres unmarked) [Ex 42, Sulfamic acid, 2-cyclohexyl-benzothiophene-6-yl-1-oxide ester] | 38% |
| 0.24 ± 0.05 nM | 10.9 ± 2.6 nM | 180 °C | 0% | NS(=O)(=O)Oc1ccc2c(c1)S(=O)(=O)C(C1CCCCC1)=C2 [Ex 44, Sulfamic acid, 2-cyclohexyl-benzothiophene-6-yl-1,1-dioxide ester] | 70% |
| 0.08 ± 0.01 nM | 52.1 ± 4.4 nM | 102 °C | 4% | NS(=O)(=O)Oc1ccc2c(c1)S(=O)(=O)C(C1CCCCCCCCC1)=C2 [Ex 47, Sulfamic acid, 2-cyclodecyl-benzothiophene-6-yl-1,1-dioxide ester] | 62% |
| 0.09 ± 0.02 nM | 7.6 ± 1.3 nM | 170 °C | 3% | CC1CCC(C2=Cc3ccc(OS(N)(=O)=O)cc3S2(=O)=O)CC1 (centres unmarked) [Ex 48, Sulfamic acid, 2-(4-methylcyclohexyl)-benzothiophene-6-yl-1,1-dioxide ester] | 60% |
| – | – | 92 °C | 8% | CC1CCCCC1C1=Cc2ccc(OS(N)(=O)=O)cc2S1(=O)=O (centres unmarked) [Ex 49, Sulfamic acid, 2-(2-methylcyclohexyl)-benzothiophene-6-yl-1,1-dioxide ester] | – |
| – | – | 172 °C | 24% | CC1(C)CCCC1C1=Cc2ccc(OS(N)(=O)=O)cc2S1(=O)=O (centres unmarked) [Ex 50, Sulfamic acid, 2-(2,2-dimethylcyclopentyl)-benzothiophene-6-yl-1,1-dioxide ester] | – |
| – | 24.7 ± 5 nM | 159 °C | – | CCCC1=Cc2ccc(OS(N)(=O)=O)cc2S1(=O)=O [Ex 52, Sulfamic acid, 2-propyl-benzothiophene-6-yl-1,1-dioxide ester] | – |
| – | 12.5 ± 3.3 nM | 98 °C | – | CCCCCCC1=Cc2ccc(OS(N)(=O)=O)cc2S1(=O)=O [Ex 53, Sulfamic acid, 2-hexyl-benzothiophene-6-yl-1,1-dioxide ester] | – |
| 0.1 ± 0.03 nM | ~10 nM and 10 nM | 132 °C | 6% | NS(=O)(=O)Oc1ccc2c(c1)S(=O)(=O)C(CC1CCCCC1)=C2 [Ex 54, Sulfamic acid, 2-cyclohexylmethyl-benzothiophene-6-yl-1,1-dioxide ester] | 49% |
| – | – | 107 °C | – | Cc1c(OS(N)(=O)=O)ccc2cc(C3CCCCCC3)sc12 [Ex 62, Sulfamic acid, 2-cycloheptyl-7-methyl-benzothiophene-6-yl ester] | – |
| – | 566 ± 130 nM | 165 °C | – | NS(=O)(=O)Oc1ccc2c3c(sc2c1)CCCC3 [Ex 64, Sulfamic acid, 1,2,3,4-tetrahydro-dibenzothiophene-7-yl ester] | – |
| – | 31.7 ± 9.9 nM | 90 °C | – | Cc1c(OS(N)(=O)=O)ccc2c1S(=O)(=O)C(C1CCCCCC1)=C2 [Ex 65, Sulfamic acid, 2-cycloheptyl-7-methyl-benzothiophene-6-yl-1,1-dioxide ester] | – |

| SMILES | IC50 (estrone sulfatase [1]) | IC50 (estrone sulfatase [2]) | melting point | % stimulation of uterus weight in comparison with controls (prepubescent female rats) | % inhibition of the E1S induced stimulation (uterus weight) [3] |
| --- | --- | --- | --- | --- | --- |
| C[C@]12CCC3c4ccc(OS(N)(=O)=O)cc4CCC3C1CCC2=O (some centres unmarked) [EMATE, estrone-3-sulfamate, reference compound] | 0.06 ± 0.01 nM | 3.2 ± 0.2 nM | – | – | – |
